As a reminder, the IC50 is the point on the concentration scale where inhibition reaches its midpoint. As a reminder, the EC50 is the midpoint of the concentration-response curve.

Experiment [1] has as its target T1, DDB1DB/DCAF15 and RBM39 R1R2 complex (Homo sapiens, UniProt Q14498+Q66K64).
T1 construct: Amino acids 150 to 331 of RBM39 were cloned into pGEX4T3; GST (from vector pGEX4T3); TEV cleavage site (N); made in house; host or cells: DDB1DB/His-DCAF15: baculovirus/Sf9 co-expression; RBM39 R1R2: E. coli (pGEX4T3)
The experiment in a line: DCAF15 RBM39 Complex Formation Assay (FRET). In kind it is binding. The settings on record: FRET ratio Em 665/Em 615, incubated overnight at 4° C. Summed up: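 Ternary complex formation read by TR-FRET (Em 665/615, excitation 340 nm) after overnight incubation at 4° C of 20 nM baculovirus DDB1DB/His-DCAF15 and 50 nM E. coli RBM39 RRM1-RRM2 FLAG fragment with 14-point, 3-fold compound dilutions from 1 μM; EC50 from 4-parameter fit.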

Experiment [2] relates to HCT116 human colorectal carcinoma cells. The experiment in a line: CellTiter-Glo Luminescent Cell Viability Assay. In kind it is cell-based. The settings on record: HCT-116, 72 h, 3 days. The method, boiled down: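 HCT116 cells were exposed for 3 days to compound in triplicate at final concentrations of 5 to 0.0002 […] (1:3 dilutions). Viability was read by CellTiter-Glo luminescence, and IC50 values were calculated.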

T1 sequence (Q66K64 whole entry, the tested form may be a part): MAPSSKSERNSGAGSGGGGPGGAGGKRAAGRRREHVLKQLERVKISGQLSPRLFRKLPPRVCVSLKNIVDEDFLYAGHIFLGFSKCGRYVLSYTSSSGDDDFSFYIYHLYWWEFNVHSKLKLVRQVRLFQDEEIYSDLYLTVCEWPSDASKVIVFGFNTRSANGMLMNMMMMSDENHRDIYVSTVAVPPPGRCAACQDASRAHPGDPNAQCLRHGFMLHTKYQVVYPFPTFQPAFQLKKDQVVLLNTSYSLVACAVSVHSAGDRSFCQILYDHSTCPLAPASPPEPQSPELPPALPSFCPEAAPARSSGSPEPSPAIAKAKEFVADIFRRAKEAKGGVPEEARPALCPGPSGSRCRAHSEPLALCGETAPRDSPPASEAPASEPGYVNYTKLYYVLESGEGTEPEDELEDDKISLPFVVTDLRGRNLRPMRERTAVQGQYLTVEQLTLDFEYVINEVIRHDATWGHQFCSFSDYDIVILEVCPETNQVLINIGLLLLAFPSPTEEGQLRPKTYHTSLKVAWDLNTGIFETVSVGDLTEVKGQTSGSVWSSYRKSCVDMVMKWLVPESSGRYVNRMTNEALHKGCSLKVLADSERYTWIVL
T1 sequence (Q14498 150-331): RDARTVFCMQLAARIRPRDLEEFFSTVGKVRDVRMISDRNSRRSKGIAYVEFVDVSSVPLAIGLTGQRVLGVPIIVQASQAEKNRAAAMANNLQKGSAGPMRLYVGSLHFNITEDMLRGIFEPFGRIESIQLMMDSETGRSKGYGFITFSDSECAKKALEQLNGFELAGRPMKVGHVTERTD
T1 sequence (Q16531 with tags, fused parts or gaps DEL396-708 partner): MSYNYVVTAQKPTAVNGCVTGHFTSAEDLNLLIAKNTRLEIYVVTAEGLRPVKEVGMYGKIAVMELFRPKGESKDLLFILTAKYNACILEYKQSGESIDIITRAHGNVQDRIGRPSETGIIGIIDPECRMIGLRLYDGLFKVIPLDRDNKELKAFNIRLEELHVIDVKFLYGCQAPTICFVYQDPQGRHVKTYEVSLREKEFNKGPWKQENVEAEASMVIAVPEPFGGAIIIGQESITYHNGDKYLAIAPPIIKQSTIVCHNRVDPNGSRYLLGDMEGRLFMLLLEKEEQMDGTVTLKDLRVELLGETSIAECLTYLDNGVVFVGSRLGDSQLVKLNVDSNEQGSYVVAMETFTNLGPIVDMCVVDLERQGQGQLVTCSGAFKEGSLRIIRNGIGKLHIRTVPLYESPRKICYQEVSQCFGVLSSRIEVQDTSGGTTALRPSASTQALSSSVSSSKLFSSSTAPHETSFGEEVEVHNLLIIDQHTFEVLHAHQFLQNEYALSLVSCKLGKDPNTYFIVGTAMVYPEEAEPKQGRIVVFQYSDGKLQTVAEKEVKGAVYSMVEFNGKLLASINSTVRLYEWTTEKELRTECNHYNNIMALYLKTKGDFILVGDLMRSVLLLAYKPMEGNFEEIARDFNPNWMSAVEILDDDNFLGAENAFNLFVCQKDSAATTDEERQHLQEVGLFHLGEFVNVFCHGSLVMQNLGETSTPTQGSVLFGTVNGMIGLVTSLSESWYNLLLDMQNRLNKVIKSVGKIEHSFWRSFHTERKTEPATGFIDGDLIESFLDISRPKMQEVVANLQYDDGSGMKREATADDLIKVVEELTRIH

As for `C[C@H](CF)n1cc(S(=O)(=O)Nc2ccc(F)c3c(C#N)c[nH]c23)cn1` [Compound 225, N-(3-cyano-4-fluoro-1H-indol-7-yl)-1-[(1R)-2-fluoro-1-methyl-ethyl]pyrazole-4-sulfonamide], in experiment [1], the IC50 was less than 250 nM. The EC50 in experiment [2] lay within 250 to 1000 nM.

As to `N#Cc1c[nH]c2c(NS(=O)(=O)c3cnn([C@@H](CO)C(F)F)c3)ccc(Cl)c12` [Compound 226, N-(4-chloro-3-cyano-1H-indol-7-yl)-1-[(1S)-2,2-difluoro-1-(hydroxymethyl)ethyl]pyrazole-4-sulfonamide], the 50% inhibitory concentration (IC50) in experiment [1] was less than 250 nM. The EC50 in experiment [2] lay within 250 to 1000 nM.

As to `Cc1ccc(NS(=O)(=O)c2cnn([C@@H](CO)C(F)F)c2)c2[nH]cc(C#N)c12` [Compound 227, N-(3-cyano-4-methyl-1H-indol-7-yl)-1-[(1S)-2,2-difluoro-1-(hydroxymethyl)ethyl]pyrazole-4-sulfonamide], the IC50 in experiment [1] was less than 250 nM. Further, in experiment [2], the EC50 lay in the range of 250 to 1000 nM.

In the case of `N#Cc1c[nH]c2c(NS(=O)(=O)c3cnn([C@@H](CO)C(F)F)c3)ccc(F)c12` [Compound 228, N-(3-cyano-4-fluoro-1H-indol-7-yl)-1-[(1S)-2,2-difluoro-1-(hydroxymethyl)ethyl]pyrazole-4-sulfonamide], in experiment [1], the IC50 is less than 250 nM. In addition, in experiment [2], the EC50 is greater than 1000 nM.

On to `Cc1ccc(NS(=O)(=O)c2cnn(C(C)(C)CCO)c2)c2[nH]cc(C#N)c12` [Compound 229, N-(3-cyano-4-methyl-1H-indol-7-yl)-1-(4-hydroxy-2-methylbutan-2-yl)-1H-pyrazole-4-sulfonamide], for which the concentration for half-maximal inhibition (IC50) in experiment [1] was less than 250 nM. The half-maximal effective concentration (EC50) in experiment [2] was less than 250 nM.

For `CC(C)(CCO)n1cc(S(=O)(=O)Nc2ccc(Cl)c3c(C#N)c[nH]c23)cn1` [Compound 230, N-(4-chloro-3-cyano-1H-indol-7-yl)-1-(3-hydroxy-1,1-dimethyl-propyl)pyrazole-4-sulfonamide], the IC50 in experiment [1] is less than 250 nM. Also, in experiment [2], the EC50 is less than 250 nM.

For the molecule `Cc1ccc(NS(=O)(=O)c2cnn(C(C)(C)CC(C)(C)O)c2)c2[nH]cc(C#N)c12` [Compound 231, N-(3-cyano-4-methyl-1H-indol-7-yl)-1-(3-hydroxy-1,1,3-trimethyl-butyl)pyrazole-4-sulfonamide], the IC50 in experiment [1] is less than 250 nM. For the same molecule, the concentration giving a half-maximal response (EC50) in experiment [2] was less than 250 nM.

Consider `C[C@@H](O)[C@H](C)n1cc(S(=O)(=O)Nc2ccc(Cl)c3c(C#N)c[nH]c23)cn1` [Compound 232, N-(4-chloro-3-cyano-1H-indol-7-yl)-1-[(1S,2R)-2-hydroxy-1-methyl-propyl]pyrazole-4-sulfonamide], for which the IC50 in experiment [1] was less than 250 nM. Further, in experiment [2], the EC50 was 250 to 1000 nM.

Regarding `C[C@@H](O)[C@H](C)n1cc(S(=O)(=O)Nc2ccc(F)c3c(C#N)c[nH]c23)cn1` [Compound 233, N-(3-cyano-4-fluoro-1H-indol-7-yl)-1-[(1S,2R)-2-hydroxy-1-methyl-propyl]pyrazole-4-sulfonamide], the IC50 in experiment [1] is less than 250 nM. Further, in experiment [2], the EC50 was in the range of 250 to 1000 nM.

With `Cc1ccc(NS(=O)(=O)c2cnn([C@@H](C)[C@@H](C)O)c2)c2[nH]cc(C#N)c12` [Compound 234, N-(3-cyano-4-methyl-1H-indol-7-yl)-1-[(1S,2R)-2-hydroxy-1-methyl-propyl]pyrazole-4-sulfonamide], the IC50 in experiment [1] is less than 250 nM. For the same molecule, in experiment [2], the EC50 was less than 250 nM.

For `CC(C)(CO)n1cc(S(=O)(=O)Nc2cccc3c(C#N)c[nH]c23)cn1` [Compound 235, N-(3-cyano-1H-indol-7-yl)-1-(2-hydroxy-1,1-dimethyl-ethyl)pyrazole-4-sulfonamide], in experiment [1], the half-inhibitory concentration (IC50) is less than 250 nM. Besides, the EC50 in experiment [2] lay within 250 to 1000 nM.

As to `Cc1ccc(NS(=O)(=O)c2cnn(C(C)CCO)c2)c2[nH]cc(C#N)c12` (stereo not shown) [Compound 236, N-(3-cyano-4-methyl-1H-indol-7-yl)-1-(3-hydroxy-1-methyl-propyl)pyrazole-4-sulfonamide], the IC50 in experiment [1] is less than 250 nM. For the same molecule, the EC50 in experiment [2] was less than 250 nM.

With `CC(CCO)n1cc(S(=O)(=O)Nc2ccc(Cl)c3c(C#N)c[nH]c23)cn1` (stereo not shown) [Compound 237, N-(4-chloro-3-cyano-1H-indol-7-yl)-1-(3-hydroxy-1-methyl-propyl)pyrazole-4-sulfonamide], the 50% inhibitory concentration (IC50) in experiment [1] was less than 250 nM. Moreover, in experiment [2], the EC50 was less than 250 nM.

With `N#Cc1c[nH]c2c(NS(=O)(=O)c3cnn([C@@H](CO)CF)c3)ccc(Cl)c12` [Compound 238, N-(4-chloro-3-cyano-1H-indol-7-yl)-1-[(1S)-1-(fluoromethyl)-2-hydroxy-ethyl]pyrazole-4-sulfonamide], the IC50 in experiment [1] is less than 250 nM. In addition, the concentration for a half-maximal effect (EC50) in experiment [2] fell in the range of 250 to 1000 nM.

Regarding `Cc1ccc(NS(=O)(=O)c2cnn(C)c2CCO)c2[nH]cc(C#N)c12` [Compound 239, N-(3-cyano-4-methyl-1H-indol-7-yl)-5-(2-hydroxyethyl)-1-methyl-pyrazole-4-sulfonamide], the IC50 in experiment [1] was less than 250 nM. For the same molecule, the concentration giving a half-maximal response (EC50) in experiment [2] was greater than 1000 nM.

For the molecule `CC(C)(C(N)=O)n1cc(S(=O)(=O)Nc2ccc(F)c3c(C#N)c[nH]c23)cn1` [Compound 240, 2-[4-[(3-cyano-4-fluoro-1H-indol-7-yl)sulfamoyl]pyrazol-1-yl]-2-methyl-propanamide], the concentration for half-maximal inhibition (IC50) in experiment [1] is less than 250 nM. Besides, in experiment [2], the 50% effective concentration (EC50) was greater than 1000 nM.

`Cc1ccc(NS(=O)(=O)c2cnn(C(C)(C)C(N)=O)c2)c2[nH]cc(C#N)c12` [Compound 241, 2-[4-[(3-cyano-4-methyl-1H-indol-7-yl)sulfamoyl]pyrazol-1-yl]-2-methyl-propanamide]: the half-inhibitory concentration (IC50) in experiment [1] is less than 250 nM. Besides, in experiment [2], the half-maximal effective concentration (EC50) was 250 to 1000 nM.

On to `Cc1ccc(NS(=O)(=O)c2cnn(C(C)CC(C)(C)O)c2)c2[nH]cc(C#N)c12` (stereo not shown) [Compound 242, N-(3-cyano-4-methyl-1H-indol-7-yl)-1-(3-hydroxy-1,3-dimethyl-butyl)pyrazole-4-sulfonamide], for which, in experiment [1], the IC50 was less than 250 nM. Further, the half-maximal effective concentration (EC50) in experiment [2] is less than 250 nM.

With `CC(CC(C)(C)O)n1cc(S(=O)(=O)Nc2ccc(Cl)c3c(C#N)c[nH]c23)cn1` (stereo not shown) [Compound 243, N-(4-chloro-3-cyano-1H-indol-7-yl)-1-(3-hydroxy-1,3-dimethyl-butyl)pyrazole-4-sulfonamide], the IC50 in experiment [1] is less than 250 nM. In experiment [2], the concentration giving a half-maximal response (EC50) was 250 to 1000 nM.

As to `Cc1ccc(NS(=O)(=O)c2cnn(C(C)(C)CO)c2Cl)c2[nH]cc(C#N)c12` [Compound 244, 5-chloro-N-(3-cyano-4-methyl-1H-indol-7-yl)-1-(2-hydroxy-1,1-dimethyl-ethyl)pyrazole-4-sulfonamide], the IC50 in experiment [1] is less than 250 nM. The EC50 in experiment [2] was less than 250 nM.

Regarding `CC(C)(CO)n1ncc(S(=O)(=O)Nc2ccc(F)c3c(C#N)c[nH]c23)c1Cl` [Compound 245, 5-chloro-N-(3-cyano-4-fluoro-1H-indol-7-yl)-1-(2-hydroxy-1,1-dimethyl-ethyl)pyrazole-4-sulfonamide], the IC50 in experiment [1] was less than 250 nM. In addition, the EC50 in experiment [2] is 250 to 1000 nM.

In the case of `Cc1ccc(NS(=O)(=O)c2cnn([C@@H](CO)CF)c2)c2[nH]cc(C#N)c12` [Compound 246, N-(3-cyano-4-methyl-1H-indol-7-yl)-1-[(1S)-1-(fluoromethyl)-2-hydroxy-ethyl]pyrazole-4-sulfonamide], the IC50 in experiment [1] was less than 250 nM. Further, the EC50 in experiment [2] fell in the range of 250 to 1000 nM.

In the case of `N#Cc1c[nH]c2c(NS(=O)(=O)c3cnn([C@@H](CO)CF)c3)ccc(F)c12` [Compound 247], the concentration for half-maximal inhibition (IC50) in experiment [1] was less than 250 nM. Further, the EC50 in experiment [2] is greater than 1000 nM.

As to `N#Cc1c[nH]c2c(NS(=O)(=O)c3cnn(C[C@H](N)C(F)(F)F)c3)ccc(Cl)c12` [Compound 248, 1-[(2S)-2-amino-3,3,3-trifluoro-propyl]-N-(4-chloro-3-cyano-1H-indol-7-yl)pyrazole-4-sulfonamide], the half-inhibitory concentration (IC50) in experiment [1] was less than 250 nM. Also, the 50% effective concentration (EC50) in experiment [2] fell in the range of 250 to 1000 nM.

On to `Cc1ccc(NS(=O)(=O)c2cnn(C[C@H](N)C(F)(F)F)c2)c2[nH]cc(C#N)c12` [Compound 249, 1-[(2S)-2-amino-3,3,3-trifluoro-propyl]-N-(3-cyano-4-methyl-1H-indol-7-yl)pyrazole-4-sulfonamide], for which the 50% inhibitory concentration (IC50) in experiment [1] is less than 250 nM. Moreover, the EC50 in experiment [2] was 250 to 1000 nM.

Regarding `CC(C)(CO)n1ncc(S(=O)(=O)Nc2ccc(Cl)c3c(C#N)c[nH]c23)c1Cl` [Compound 250, 5-chloro-N-(4-chloro-3-cyano-1H-indol-7-yl)-1-(2-hydroxy-1,1-dimethyl-ethyl)pyrazole-4-sulfonamide], the half-maximal inhibitory concentration (IC50) in experiment [1] was less than 250 nM. For the same molecule, the half-maximal effective concentration (EC50) in experiment [2] was less than 250 nM.

Consider `CC(C)(CO)n1ncc(S(=O)(=O)Nc2cccc3c(C#N)c[nH]c23)c1Cl` [Compound 251, 5-chloro-N-(3-cyano-1H-indol-7-yl)-1-(2-hydroxy-1,1-dimethyl-ethyl)pyrazole-4-sulfonamide], for which the IC50 in experiment [1] was less than 250 nM. Also, in experiment [2], the EC50 was in the range of 250 to 1000 nM.

Turning to `Cc1ccc(NS(=O)(=O)c2cn(C(C)(C)CO)nc2Cl)c2[nH]cc(C#N)c12` [Compound 252, 3-chloro-N-(3-cyano-4-methyl-1H-indol-7-yl)-1-(2-hydroxy-1,1-dimethyl-ethyl)pyrazole-4-sulfonamide], the IC50 in experiment [1] was less than 250 nM. In experiment [2], the EC50 lay within 250 to 1000 nM.

As for `CC(C)(CO)n1cc(S(=O)(=O)Nc2cccc3c(C#N)c[nH]c23)c(Cl)n1` [Compound 253, 3-chloro-N-(3-cyano-1H-indol-7-yl)-1-(2-hydroxy-1,1-dimethyl-ethyl)pyrazole-4-sulfonamide], the concentration for half-maximal inhibition (IC50) in experiment [1] was less than 250 nM. In addition, the concentration giving a half-maximal response (EC50) in experiment [2] is greater than 1000 nM.

Values taken from US20250368627A1, “PYRAZOLESULFONAMIDES AS ANTITUMOR AGENTS” (Peloton Therapeutics, Inc., a fully owned subsidiary of …, priority 2019, published 2025).
